Measured values from US20240174679A1, “HETEROAROYL AMIDES AS LRRK2 INHIBITORS, PHARMACEUTICAL COMPOSITIONS, AND USES THEREOF” (MERCK SHARP & DOHME LLC, priority 2021, published 2024).

Target: GST tagged truncated human mutant G2019S LRRK2 (Homo sapiens (Human), UniProt Q5S007, G2019S)
Assay: LRRK2 Km ATP LanthaScreen Assay
Assay type: biochemical
Details: 134 μM ATP (Km ATP), LRRKtide substrate, negative log of mean IC50 (molar)
Method in brief: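 Truncated GST-tagged G2019S LRRK2 (1.25 nM enzyme solution) was preincubated with compound for 15 min at rt, then reacted for 90 min with fluorescein-LRRKtide and 134 μM ATP (Km) in Tris pH 8.5/MgCl2 buffer. After an EDTA stop, TR-FRET used a Tb anti-pERM antibody (520/495 nm ratio). IC50 came from a 4-parameter fit and is reported as pIC50, mean of several runs.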

GST tagged truncated human mutant G2019S LRRK2, sequence (Q5S007 970-2527 G2019S): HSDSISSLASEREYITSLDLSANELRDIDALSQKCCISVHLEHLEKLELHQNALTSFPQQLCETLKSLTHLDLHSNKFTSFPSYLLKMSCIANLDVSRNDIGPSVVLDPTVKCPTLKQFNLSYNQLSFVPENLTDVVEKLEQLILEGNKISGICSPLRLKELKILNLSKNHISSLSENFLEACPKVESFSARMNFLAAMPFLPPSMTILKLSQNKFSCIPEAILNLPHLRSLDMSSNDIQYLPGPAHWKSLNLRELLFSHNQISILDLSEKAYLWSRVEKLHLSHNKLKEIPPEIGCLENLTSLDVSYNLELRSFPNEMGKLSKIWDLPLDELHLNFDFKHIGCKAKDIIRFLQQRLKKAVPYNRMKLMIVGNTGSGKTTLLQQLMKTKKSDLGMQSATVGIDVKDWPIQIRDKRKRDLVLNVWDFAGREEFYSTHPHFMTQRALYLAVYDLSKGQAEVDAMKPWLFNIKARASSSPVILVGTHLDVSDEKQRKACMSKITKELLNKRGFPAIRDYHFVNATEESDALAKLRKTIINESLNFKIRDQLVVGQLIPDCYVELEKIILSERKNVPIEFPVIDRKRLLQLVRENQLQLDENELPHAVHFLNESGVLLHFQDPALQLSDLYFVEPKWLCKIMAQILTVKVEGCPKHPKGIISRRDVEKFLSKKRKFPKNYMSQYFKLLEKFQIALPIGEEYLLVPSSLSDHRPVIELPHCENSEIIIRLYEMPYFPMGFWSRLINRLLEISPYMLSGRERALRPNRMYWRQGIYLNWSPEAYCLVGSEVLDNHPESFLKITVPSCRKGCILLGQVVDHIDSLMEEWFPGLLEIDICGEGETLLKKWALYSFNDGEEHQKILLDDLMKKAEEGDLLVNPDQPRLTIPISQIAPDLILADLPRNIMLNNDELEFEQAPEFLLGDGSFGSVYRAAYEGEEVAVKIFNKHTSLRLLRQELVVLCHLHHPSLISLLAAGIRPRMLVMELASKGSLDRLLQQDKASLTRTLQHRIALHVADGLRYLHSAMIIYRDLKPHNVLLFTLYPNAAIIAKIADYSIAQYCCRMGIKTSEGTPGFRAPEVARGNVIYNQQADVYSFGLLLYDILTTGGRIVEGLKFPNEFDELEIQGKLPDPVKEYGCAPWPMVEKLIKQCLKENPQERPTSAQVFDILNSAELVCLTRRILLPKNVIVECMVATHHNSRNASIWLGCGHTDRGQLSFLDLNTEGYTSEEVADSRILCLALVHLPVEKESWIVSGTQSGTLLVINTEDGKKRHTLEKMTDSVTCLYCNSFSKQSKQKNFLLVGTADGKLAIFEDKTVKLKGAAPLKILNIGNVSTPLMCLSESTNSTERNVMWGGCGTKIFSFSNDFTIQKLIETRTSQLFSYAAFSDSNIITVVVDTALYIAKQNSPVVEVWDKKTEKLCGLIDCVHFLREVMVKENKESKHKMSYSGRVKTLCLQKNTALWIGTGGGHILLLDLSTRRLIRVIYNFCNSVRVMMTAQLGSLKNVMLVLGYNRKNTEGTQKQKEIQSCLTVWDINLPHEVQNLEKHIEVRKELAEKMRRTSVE

Row | Structure (SMILES) | LRRK2 pIC50 | IC50 (read-out: LRRK2 pIC50 (converted)) [nM]
1 | O=C(Nc1cn(CC2CCCO2)nc1C(F)F)c1csc(-c2cn[nH]c2)n1 (stereo not drawn) [Example 7-12, N-[3-(difluoromethyl)-1-(tetrahydrofuran-2-ylmethyl)-1H-pyrazol-4-yl]-2-(1H-pyrazol-4-yl)-1,3-thiazole-4-carboxamide] | 7.68 | –
2 | O=C(Nc1cnn(CC2CCC(F)(F)CC2)c1)c1csc(-c2cn[nH]c2)n1 [Example 7-8, N-{1-[(4,4-difluorocyclohexyl)methyl]-1H-pyrazol-4-yl}-2-(1H-pyrazol-4-yl)-1,3-thiazole-4-carboxamide] | 7.35 | –
3 | CC1(Cn2cc(NC(=O)c3csc(-c4cn[nH]c4)n3)c(C(F)F)n2)COC1 [Example 7-42, N-{3-(difluoromethyl)-1-[(3-methyloxetan-3-yl)methyl]-1H-pyrazol-4-yl}-2-(1H-pyrazol-4-yl)-1,3-thiazole-4-carboxamide] | 6.51 | –
4 | O=C(Nc1cn(CC2CC2(F)F)nc1C(F)F)c1csc(-c2cn[nH]c2)n1 (stereo not drawn) [Example 7-29, N-{1-[(2,2-difluorocyclopropyl)methyl]-3-(difluoromethyl)-1H-pyrazol-4-yl}-2-(1H-pyrazol-4-yl)-1,3-thiazole-4-carboxamide] | 7.78 | –
5 | Cc1cnccc1-n1cc(NC(=O)c2csc(-c3cn[nH]c3)n2)cn1 [Example 8-2, N-[1-(3-methylpyridin-4-yl)-1H-pyrazol-4-yl]-2-(1H-pyrazol-4-yl)-1,3-thiazole-4-carboxamide] | 7.74 | –
6 | Cn1cc(NC(=O)c2csc(-c3cn[nH]c3)n2)c(C(F)F)n1 [Example 1-15, N-[3-(difluoromethyl)-1-methyl-1H-pyrazol-4-yl]-2-(1H-pyrazol-4-yl)-1,3-thiazole-4-carboxamide] | 7.79 | –
7 | CN1CCN(CCCn2cc(NC(=O)c3csc(-c4cn[nH]c4)n3)cn2)CC1 [Example 7-34, N-{1-[3-(4-methylpiperazin-1-yl)propyl]-1H-pyrazol-4-yl}-2-(1H-pyrazol-4-yl)-1,3-thiazole-4-carboxamide] | 5.95 | –
8 | Cc1nn(C(C2CC2)C2CC2)cc1NC(=O)c1csc(-c2cn[nH]c2)n1 [Example 1-23, N-[1-(dicyclopropyl-methyl)-3-methyl-1H-pyrazol-4-yl]-2-(1H-pyrazol-4-yl)-1,3-thiazole-4-carboxamide] | 6.59 | –
9 | COc1nn(CC2CC2)cc1NC(=O)c1csc(-c2cn[nH]c2)n1 [Example 7-14, N-[1-(cyclopropylmethyl)-3-methoxy-1H-pyrazol-4-yl]-2-(1H-pyrazol-4-yl)-1,3-thiazole-4-carboxamide] | 7.92 | –
10 | CC(C)n1cc(NC(=O)c2csc(-c3cn[nH]c3)n2)c(C(F)F)n1 [Example 7-18, N-[3-(difluoromethyl)-1-(1-methylethyl)-1H-pyrazol-4-yl]-2-(1H-pyrazol-4-yl)-1,3-thiazole-4-carboxamide] | 7.72 | –
11 | O=C(Nc1cnn(CC2CCC2)c1)c1cccc(-c2cncnc2)n1 [Example 9-2, N-[1-(cyclobutylmethyl)-1H-pyrazol-4-yl]-6-pyrimidin-5-ylpyridine-2-carboxamide] | 5.74 | –
12 | O=C(Nc1cnn(CC2CCCO2)c1)c1csc(-c2cn[nH]c2)n1 (stereo not drawn) [Example 7-13, 2-(1H-pyrazol-4-yl)-N-[1-(tetrahydrofuran-2-ylmethyl)-1H-pyrazol-4-yl]-1,3-thiazole-4-carboxamide] | 6.84 | –
13 | O=C(Nc1cnn(C2CCC2)c1)c1coc(-c2cn[nH]c2)n1 [Example 1-33, N-(1-cyclobutyl-1H-pyrazol-4-yl)-2-(1H-pyrazol-4-yl)-1,3-oxazole-4-carboxamide] | 7.13 | –
14 | O=C(Nc1cnn(C2CCC2)c1)c1csc(-n2cccn2)n1 [Example 11-1, N-(1-Cyclobutyl-1H-pyrazol-4-yl)-2-(1H-pyrazol-1-yl)thiazole-4-carboxamide] | – | 100
15 | CCn1cc(-c2nc(C(=O)Nc3cnn(C4CCC4)c3)cs2)cn1 [Example 9-4, N-(1-cyclobutyl-1H-pyrazol-4-yl)-2-(1-ethyl-1H-pyrazol-4-yl)-1,3-thiazole-4-carboxamide] | 7.41 | –
